Tests used:
human P2Y12 receptor = human P2Y12 receptor (Homo sapiens, UniProt Q9H244); test: Human P2Y12 recombinant cell membrane binding assay with 33P 2MeS-ADP; conditions: competition against 33P 2MeS-ADP, membranes of CHO cells with recombinant human P2Y12 receptor
In short: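 CHO membranes expressing human P2Y12 (20 μg/ml stock) preincubated 15 min at RT with compound in HEPES pH 7.4 buffer, then 33P 2MeS-ADP (1.61 nM working solution) added for 20 min at RT. Bound label filtered and counted; four-point, five-fold series from 10 μM final, triplicate, four-parameter fit.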

[1] = tested on: human platelet rich plasma; test: Inhibition of human platelet aggregation, 96-well assay; assay type: cell-based; conditions: Homo sapiens, Platelet, 20 min
In short: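 ADP-induced aggregation read as 650 nm absorbance every minute for 20 min at 37 °C, with shaking between reads. PRP (~3×E8 platelets/ml, diluted with PPP, ACD-A blood from healthy volunteers) was exposed to compound for 5 min before adding a 40 μM ADP stock (15 μl into 150 μl).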

[2] = tested on: human platelet rich plasma; test: Inhibition of human platelet aggregation, "Born"-method using single cuvettes; assay type: cell-based; conditions: 0.1 h, ADP-induced aggregation, 6 minutes
Description: Inhibition of Human Platelet Aggregation
Alternatively to a binding assay which measures a compound's ability to bind to the P2Y12 receptor, the effect on cellular function was also determined. This ability of the compound was evaluated in two platelet aggregation assays: in 96-well plates and with the “Born”-method using single cuvettes.
Whole blood was collected from healthy volunteers using 20 ml syringes containing 2 ml of buffered Citrate. The anticoagulated whole blood was transferred into 15 ml polypropylene conical tubes (10 ml per tube). The tubes were centrifuged for 15 minutes at 340×g at RT without using the centrifuge brake. This procedure leads to a pellet of cellular components and a supernatant of platelet rich plasma (PRP). The PRP layer was collected from each tube and pooled for each donor. To avoid carry over of cellular components following centrifugation, approximately 5 ml of PRP was left in the tube. The platelet concentration was determined using a Coulter Counter.
The 15 ml tubes containing the pellet of cellular components were centrifuged again for 10 minutes at 1940×g. This pelleted out most particulate blood constituents remaining, leaving a layer of Platelet Poor Plasma (PPP). The PPP was collected for each donor. The PRP layer, previously set aside, was diluted with PPP to a final concentration of approximately 3×E8 platelets/ml with the PPP.
The human platelet aggregation assay is performed in single use cuvettes using the platelet aggregation profiler (PAP-4 or -8, Bio/Data corporation).
In the assay cuvette 4 μl of test compound at 100× final concentration in DMSO is mixed with 392 μl fresh PRP and incubated for 2 minutes at 37° C. with 1.200 rpm stirring. Following that incubation period, 4 μl of 250 μM ADP is added to the reaction mix. This addition of ADP is sufficient to induce aggregation in the absence of an inhibitor. After that aggregation is measured over 6 minutes at 37° C. with 1.200 rpm stirring. Results of the assay are expressed as % inhibition, and are calculated using maximum aggregation (Tmax) or area under curve (AUC) of the absorbance over 6 minutes.
The IC50 data of the above described platelet aggregation assay using human platelet rich plasma for exemplary compounds of the present invention are shown in table 3.

Sequence of human P2Y12 receptor (Q9H244 whole entry): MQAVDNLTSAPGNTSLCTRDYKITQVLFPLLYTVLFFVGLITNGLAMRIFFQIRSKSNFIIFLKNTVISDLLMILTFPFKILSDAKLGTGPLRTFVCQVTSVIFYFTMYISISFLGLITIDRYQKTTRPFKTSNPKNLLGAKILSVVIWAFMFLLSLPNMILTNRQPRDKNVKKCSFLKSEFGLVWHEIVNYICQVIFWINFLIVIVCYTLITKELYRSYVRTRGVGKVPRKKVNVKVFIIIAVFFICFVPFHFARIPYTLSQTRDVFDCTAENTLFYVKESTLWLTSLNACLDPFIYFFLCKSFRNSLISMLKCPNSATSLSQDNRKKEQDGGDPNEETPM

| IC50 (human P2Y12 receptor) [nM] | IC50 [1] [nM] | IC50 [2] [nM] | Structure (SMILES) |
| --- | --- | --- | --- |
| 93 | 50 | 180 | CCOC(=O)N1CCN(C(=O)[C@H](CCC(=O)O)NC(=O)c2cc(O[C@H](C)C(=O)N3CCC[C@H]3C(=O)NC3CC3)n(-c3ccccc3)n2)CC1 [Example 61, 4-[(S)-4-Carboxy-2-({5-[(R)-2-((S)-2-cyclopropylcarbamoyl-pyrrolidin-1-yl)-1-methyl-2-oxo-ethoxy]-1-phenyl-1H-pyrazole-3-carbonyl}-amino)-butyryl]-piperazine-1-carboxylic acid ethyl ester] |
| 17 | 130 | 58 | CCOC(=O)N1CCN(C(=O)[C@H](CCC(=O)O)NC(=O)c2cc(O[C@H](C)C(=O)N3CCC[C@H]3C(=O)NC3CCC3)n(-c3ccccc3)n2)CC1 [Example 62, 4-[(S)-4-Carboxy-2-({5-[(R)-2-((S)-2-cyclobutylcarbamoyl-pyrrolidin-1-yl)-1-methyl-2-oxo-ethoxy]-1-phenyl-1H-pyrazole-3-carbonyl}-amino)-butyryl]-piperazine-1-carboxylic acid ethyl ester] |
| 55 | 10 | 210 | CCOC(=O)N1CCN(C(=O)[C@H](CCC(=O)O)NC(=O)c2cc(OCC(=O)N3CCC[C@H]3C(=O)NC3CCC3)n(-c3cccc(F)c3)n2)CC1 [Example 73, 4-((S)-4-Carboxy-2-{[5-[2-((S)-2-cyclobutylcarbamoyl-pyrrolidin-1-yl)-2-oxo-ethoxy]-1-(3-fluoro-phenyl)-1H-pyrazole-3-carbonyl]-amino}-butyryl)-piperazine-1-carboxylic acid ethyl ester] |
| 127 | 560 | 120 | O=C(O)CC[C@H](NC(=O)c1cc(OCC(=O)N2CCC[C@H]2C(=O)NC2CCC2)n(-c2ccccc2)n1)C(=O)N1CCC(C(=O)c2cccc(Cl)c2)CC1 [Example 103, (S)-5-[4-(3-Chloro-benzoyl)-piperidin-1-yl]-4-({5-[2-((S)-2-cyclobutylcarbamoyl-pyrrolidin-1-yl)-2-oxo-ethoxy]-1-phenyl-1H-pyrazole-3-carbonyl}-amino)-5-oxo-pentanoic acid] |
| 59 | 210 | 120 | CCOC(=O)N1CCN(C(=O)[C@H](CCO)NC(=O)c2cc(OCC(=O)N3CCC[C@H]3C(=O)NC3CCC3)n(-c3ccccc3)n2)CC1 [Example 115, 4-[(S)-2-({5-[2-((S)-2-Cyclobutylcarbamoyl-pyrrolidin-1-yl)-2-oxo-ethoxy]-1-phenyl-1H-pyrazole-3-carbonyl}-amino)-4-hydroxy-butyryl]-piperazine-1-carboxylic acid ethyl ester] |
| 9 | 20 | 25 | CCCCOC(=O)N1CCN(C(=O)[C@H](CCC(=O)O)NC(=O)c2cc(OCC(=O)N3CCC[C@H]3C(=O)NC3CC3)n(-c3ccccc3)n2)CC1 [Example 118, 4-[(S)-4-Carboxy-2-({5-[2-((S)-2-cyclopropylcarbamoyl-pyrrolidin-1-yl)-2-oxo-ethoxy]-1-phenyl-1H-pyrazole-3-carbonyl}-amino)-butyryl]-piperazine-1-carboxylic acid butyl ester] |
| 3 | 10 | 21 | CCCCOC(=O)N1CCN(C(=O)[C@H](CCC(=O)O)NC(=O)c2cc(OCC(=O)N3CCC[C@H]3C(=O)NCC3CC3)n(-c3ccccc3)n2)CC1 [Example 120, 4-[(S)-4-Carboxy-2-({5-[2-((S)-2-cyclopropylmethylcarbamoyl-pyrrolidin-1-yl)-2-oxo-ethoxy]-1-phenyl-1H-pyrazole-3-carbonyl}-amino)-butyryl]-piperazine-1-carboxylic acid butyl ester] |
| 10 | 30 | 5.8 | CCCCOC(=O)N1CCN(C(=O)[C@H](CCC(=O)O)NC(=O)c2cc(OCC(=O)N3CCC[C@H]3C(=O)NCC(F)F)n(-c3ccccc3)n2)CC1 [Example 121, 4-{(S)-4-Carboxy-2-[(5-{2-[(S)-2-(2,2-difluoro-ethylcarbamoyl)-pyrrolidin-1-yl]-2-oxo-ethoxy}-1-phenyl-1H-pyrazole-3-carbonyl)-amino]-butyryl}-piperazine-1-carboxylic acid butyl ester] |
| 12 | 40 | 81 | CCCCOC(=O)N1CCN(C(=O)[C@H](CCC(=O)O)NC(=O)c2cc(OCC(=O)N3CCC[C@H]3C(=O)NCCF)n(-c3ccccc3)n2)CC1 [Example 122, 4-{(S)-4-Carboxy-2-[(5-{2-[(S)-2-(2-fluoro-ethylcarbamoyl)-pyrrolidin-1-yl]-2-oxo-ethoxy}-1-phenyl-1H-pyrazole-3-carbonyl)-amino]-butyryl}-piperazine-1-carboxylic acid butyl ester] |
| 5 | 30 | 2.6 | CCCCOC(=O)N1CCN(C(=O)[C@H](CCC(=O)O)NC(=O)c2cc(OCC(=O)N3CCC[C@H]3C(=O)NCC(F)(F)F)n(-c3ccccc3)n2)CC1 [Example 123, 4-{(S)-4-Carboxy-2-[(5-{2-[(S)-2-(2,2,2-trifluoro-ethylcarbamoyl)-pyrrolidin-1-yl]-2-oxo-ethoxy}-1-phenyl-1H-pyrazole-3-carbonyl)-amino]-butyryl}-piperazine-1-carboxylic acid butyl ester] |
| 5 | 90 | 150 | CCCCOC(=O)N1CCN(C(=O)[C@H](CCC(=O)OCC)NC(=O)c2cc(OCC(=O)N3CCC[C@H]3C(=O)NC3CCC3)n(-c3ccccc3)n2)CC1 [Example 143, 4-[(S)-2-({5-[2-((S)-2-Cyclobutylcarbamoyl-pyrrolidin-1-yl)-2-oxo-ethoxy]-1-phenyl-1H-pyrazole-3-carbonyl}-amino)-4-ethoxycarbonyl-butyryl]-piperazine-1-carboxylic acid butyl ester] |
| 8 | 20 | 33 | CCCOC(=O)N1CCN(C(=O)[C@H](CCC(=O)O)NC(=O)c2cc(OCC(=O)N3CCC[C@H]3C(=O)NC3CCC3)n(-c3ccccc3)n2)CC1 [Example 162, 4-[(S)-4-Carboxy-2-({5-[2-((S)-2-cyclobutylcarbamoyl-pyrrolidin-1-yl)-2-oxo-ethoxy]-1-phenyl-1H-pyrazole-3-carbonyl}-amino)-butyryl]-piperazine-1-carboxylic acid propyl ester] |
| 146 | 380 | 530 | CCOC(=O)N1CCN(C(=O)[C@H](CCC(=O)O)NC(=O)c2cc(OCC(=O)N3CCC[C@H]3c3nc(C)c[nH]3)n(-c3ccccc3)n2)CC1 [Example 172, 4-{(S)-4-Carboxy-2-[(5-{2-[(S)-2-(4-methyl-1H-imidazol-2-yl)-pyrrolidin-1-yl]-2-oxo-ethoxy}-1-phenyl-1H-pyrazole-3-carbonyl)-amino]-butyryl}-piperazine-1-carboxylic acid ethyl ester] |
| 20 | 30 | 46 | CCCCOC(=O)N1CCN(C(=O)CNC(=O)c2cc(OCC(=O)N3CCC[C@H]3C(=O)NC3CCC3)n(-c3ccccc3)n2)CC1 [Example 182, 4-[2-({5-[2-((S)-2-Cyclobutylcarbamoyl-pyrrolidin-1-yl)-2-oxo-ethoxy]-1-phenyl-1H-pyrazole-3-carbonyl}-amino)-acetyl]-piperazine-1-carboxylic acid butyl ester] |
| 18 | 280 | 80 | CCCCOC(=O)N1CCN(C(=O)[C@@H](C)NC(=O)c2cc(OCC(=O)N3CCC[C@H]3C(=O)NC3CCC3)n(-c3ccccc3)n2)CC1 [Example 184, 4-[(R)-2-({5-[2-((S)-2-Cyclobutylcarbamoyl-pyrrolidin-1-yl)-2-oxo-ethoxy]-1-phenyl-1H-pyrazole-3-carbonyl}-amino)-propionyl]-piperazine-1-carboxylic acid butyl ester] |
| 72 | 120 | 30 | CCCOC(=O)N1CCN(C(=O)CNC(=O)c2cc(OCC(=O)N3CCC[C@H]3C(=O)NC3CCC3)n(-c3ccccc3)n2)CC1 [Example 210, 4-[2-({5-[2-((S)-2-Cyclobutylcarbamoyl-pyrrolidin-1-yl)-2-oxo-ethoxy]-1-phenyl-1H-pyrazole-3-carbonyl}-amino)-acetyl]-piperazine-1-carboxylic acid propyl ester] |
